Test results as given in US20180280340A1, “METHOD OF TREATING AND PREVENTING INFECTIONS” (priority 2017, published 2018).

Legend:
[1] = test system: G. vaginalis; assay: broth microdilution assay to determine MIC and sub-MICs of BPO; format: cell-based; conditions: Gardnerella vaginalis, DMSO solution of BPO, read-out: concentration required to completely inhibit the growth of G. vaginalis (MIC)
Excerpt: Experimental Details: At a first step of the experiment, a broth microdilution assay was used to determine MIC and sub-MICs of BPO against G. vaginalis, a leading microorganism responsible for Bacterial Vaginosis. […] Note that in this test, the prototype of the vaginal gel was not used, but a DMSO solution of PBO (solution required for 96-well microplate) was used. Consequently, the inhibitory concentration for G. vaginalis found in this test cannot be compared with the inhibitory concentrations for BPO-gel as found in the previous experiments (Xu et al., 2013).

[2] = test system: G. vaginalis; assay: bacterial cells viability under sub-MIC BPO treatment; format: cell-based, Gardnerella vaginalis; conditions: highest sub-MIC concentration of 250 μg/mL
[3] = test system: G. vaginalis biofilm; assay: biofilm production inhibition, colorimetric biofilm staining; format: cell-based, Gardnerella vaginalis
Description: As a second step, the concentrations, which inhibited biofilm production, were determined. Several concentrations of BPO were tested: 0, 31.25, 62.5, 125, and 250 μg/mL. A colorimetric method was used for biofilm staining and to determine the biofilm integrity percent after the treatment. Note that in this test, the prototype of the vaginal gel was not used, but a DMSO solution of PBO (solution required for 96-well microplate) was used. Consequently, the inhibitory concentration for G. vaginalis found in this test cannot be compared with the inhibitory concentrations for BPO-gel as found in the previous experiments (Xu et al., 2013).

## O=C(OOC(=O)c1ccccc1)c1ccccc1 [BPO, Benzoyl peroxide]
[1]
  MIC: > 250 µg/mL
[2]
  bacterial cells viability: not influenced
[3]; 125 μg/mL BPO
  biofilm prevention: more than 40%
[3]; Gardnerella vaginalis, 250 μg/mL BPO (sub-MIC), compared with the control, read-out: biofilm formation inhibited
  inhibition at 250 µg/mL: ~80%
[3]; around 250 μg/mL BPO
  biofilm integrity: 20%
